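Dose response: 5 concentrations. Exposure: 48 h. Format: 96-well plates. Endpoint: linear interpolation; highest concentration if not reached. At the TGI there is no net growth.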
Tested on: COLO 205 colon
Assay: inhibition of tumour cell growth, NCI panel, 48 h

Row | SMILES | TGI [µM]
1 | CC1c2c(Cl)nc3ccccc3c2Oc2c1c(Cl)nc1ccccc21 | > 100
2 | COC1(OC)C(N(C)C)=C(Cl)C(=O)/C1=C/C=O | > 100
3 | OC1C#CCSCC#C/C=C\1 (stereo not given) | 29.3
4 | CC(=O)Oc1ccc2c(C)cc(=O)oc2c1OC(C)=O | > 100
5 | N#Cc1c2ccccc2cn1-c1ccc(F)cc1 | 61.7
6 | Cc1ccccc1N1C(=O)C2C=CC(n3[nH]c(=O)n(Cc4ccccc4)c3=O)CC2C1=O (stereo not given) | > 100
7 | CN(CC(=O)O)c1ncc2c(n1)CCCC2 | > 100
8 | COc1ccc(/C=C2\N=C(SC)N(CN3CCOCC3)C2=O)cc1 | > 100
9 | O=C(Nc1nc(C23CC4CC(CC(C4)C2)C3)cs1)c1cc2ccc(O)cc2oc1=O | 50.4
10 | O=C1C(c2c(O)[nH]c3ccc(F)cc23)=Nc2ccccc21 | > 100
11 | CCOC(=O)c1nnc2c(C(=O)OCC)c3ccccc3n2c1N | 49.6
12 | S=c1sc2c(Cl)nc(Cl)nc2n1-c1ccccc1 | > 100
13 | CC12CC(c3ccccc3O1)C(C(=O)Nc1ccc(Cl)cc1Cl)C(=O)N2 (stereo not given) | > 100
14 | CCC(C)OC(=O)/C(Br)=C1/OC(=O)c2ccccc2-c2ccccc21 (stereo not given) | 38.1
15 | NC(=O)C(C(N)=O)=C(O)C(=O)/C=C(\O)c1ccccc1 | > 100
16 | Cn1ccc(C(=O)NCCN(CCNC(=O)c2ccn(C)c(=O)c2O)CCNC(=O)c2cccc(=O)n2O)c(O)c1=O | > 100
17 | COC(=O)c1cc2ccc(N)nc2[nH]c1=O | > 100
18 | Cc1cc(S(=O)(=O)Nc2n[nH]c(N)n2)c(SCC(=O)O)cc1Cl | > 10
19 | NNC(=O)c1n[nH]nc1C(=O)NN | > 100
20 | O=C(O)[C@@H]1CCS(=O)(=O)N1 | > 100
21 | CC(C)(C)OC(=O)[C@H]1CCC(=S)N1Cc1ccccc1 | > 100
22 | COc1ccc(S(=O)(=O)c2nnc(S(=O)(=O)Cc3ccccc3)s2)cc1 | 28.5
23 | O=[N+]([O-])c1ccc2c(c1)C1=C(CO2)Cc2ccccc2O1 | 30.6
24 | NC(=O)C12CC3CC(CC(F)(C3)C1)C2 | > 100
25 | O=c1c(/C=C/c2c(O)ccc3ccccc23)nnc2sc(-c3cccc(Br)c3)nn12 | > 100
26 | Cc1c(N=Nc2ccc(Cl)cc2)c(-c2ccccc2)n(C2OC(CO)C(O)C(O)C2O)c(=S)c1C#N (stereo not given) | 37.7
27 | CC(=O)Oc1c2c(c(O)c3ccccc13)C(n1cnc3c(ncn3C3OC(CO)C4OC(C)(C)OC43)c1=N)CCC2 (stereo not given) | 37.6
28 | N#Cc1c(N)n(-c2cccc(C(=O)O)c2)c(=O)c2cc([N+](=O)[O-])ccc12 | > 100
29 | CN(C)CCC(=O)c1ccccc1 | > 57.2
30 | CCOc1ccccc1NC(=O)C(=O)CC(=O)c1sc(Nc2nnc(-c3ccc(Cl)c(Cl)c3)o2)nc1C | > 100

Tested on: TK-10 renal
Assay: inhibition of tumour cell growth, NCI panel, 48 h

Row | SMILES | TGI [µM]
31 | COC(=O)c1ccccc1/C=C1\Cc2ccc(C)c(C)c2C1=O | > 100
32 | COc1cc(C2c3cc4c(cc3OC3(OC)COC(=O)C23)OCO4)cc(OC)c1OC(C)=O (stereo not given) | > 100
33 | CN1CCOC(c2ccccc2)O1 (stereo not given) | > 100
34 | O=C(/C=C/c1cc2ccccc2o1)N1CCN(c2ccccn2)CC1 | > 100
35 | CCCNC(=S)NNC(=O)CSc1nc(-c2ccccc2)c(-c2ccccc2)[nH]1 | > 100
36 | CC(=O)c1sc(Nc2nnc(-c3ccc(-c4nnc(Nc5nc(C)c(C(C)=O)s5)o4)cc3)o2)nc1C | > 100
37 | CC1c2c(Cl)nc3ccccc3c2Oc2c1c(Cl)nc1ccccc21 | > 100
38 | COC1(OC)C(N(C)C)=C(Cl)C(=O)/C1=C/C=O | > 100
39 | OC1C#CCSCC#C/C=C\1 (stereo not given) | > 100
40 | CC(=O)Oc1ccc2c(C)cc(=O)oc2c1OC(C)=O | 84.9
41 | N#Cc1c2ccccc2cn1-c1ccc(F)cc1 | > 100
42 | Cc1ccccc1N1C(=O)C2C=CC(n3[nH]c(=O)n(Cc4ccccc4)c3=O)CC2C1=O (stereo not given) | > 100
43 | CN(CC(=O)O)c1ncc2c(n1)CCCC2 | > 100
44 | COc1ccc(/C=C2\N=C(SC)N(CN3CCOCC3)C2=O)cc1 | > 100
45 | O=C(Nc1nc(C23CC4CC(CC(C4)C2)C3)cs1)c1cc2ccc(O)cc2oc1=O | > 100
46 | O=C1C(c2c(O)[nH]c3ccc(F)cc23)=Nc2ccccc21 | > 100
47 | CCOC(=O)c1nnc2c(C(=O)OCC)c3ccccc3n2c1N | > 100
48 | S=c1sc2c(Cl)nc(Cl)nc2n1-c1ccccc1 | > 100
49 | CCC(C)OC(=O)/C(Br)=C1/OC(=O)c2ccccc2-c2ccccc21 (stereo not given) | 43.2
50 | NC(=O)C(C(N)=O)=C(O)C(=O)/C=C(\O)c1ccccc1 | > 100
51 | COC(=O)c1cc2ccc(N)nc2[nH]c1=O | > 100
52 | Cc1cc(S(=O)(=O)Nc2n[nH]c(N)n2)c(SCC(=O)O)cc1Cl | > 10
53 | NNC(=O)c1n[nH]nc1C(=O)NN | > 100
54 | O=C(O)[C@@H]1CCS(=O)(=O)N1 | > 100
55 | CC(C)(C)OC(=O)[C@H]1CCC(=S)N1Cc1ccccc1 | > 100

From PubChem BioAssay (NCI)
